Assay results as given in US20240207214A1, “FATTY ACID LACTYLATES FOR USE IN TREATING RUMINANT ANIMALS” (FORFARMERS CORPORATE SERVICES B.V., priority 2021, published 2024).

Tests used:
Type in all cases: in vivo
Conditions in all cases: diet supplementation, 10 ruminants per group; putative results
ruminants [1] = experiment: comparison of lactylates: effect on milk fat yield
Procedure: (§1) Two experiments were carried out to evaluate the efficacy of lactylate in stimulating intestinal absorptive capacity and improving fecal consistency, dry matter content and scores and milk fat yield. The first experiment was conducted with goats and the second with dairy cows. The focus of the first experiment was the absorptive capacity and fecal consistency and scores, while the 2nd experiment focused on the effect on milk fat yield. In the first experiment, a goat farm was used. The farm had issues with fecal consistency, having at least 30 goats per pen with low fecal consistency. Fecal consistency and scores per pen were recorded 2 times per week from the start of the experiment for a period of 3 months. The goats in the farm were supplemented with lactylates (in this case applied as ALOAPUR® powder as obtained from Purac/Corbion) (added to the compound feed) at the rate of 3.5 to 7 g per goat per day. The 2nd study focused on the effect on milk fat yield and was conducted at a dairy research farm. The herd (120 cows) was divided into 2 groups blocked on days in milk, milk yield and milk fat %. One group was supplemented with 50 g of lactylates per cow per day while the other group served as a control. The ration for both groups was similar and was balanced on energy, protein and minerals and vitamins. The experiment lasted for 9 week. Performance data was collected/recorded on weekly basis. […] Methane emission is determined as described in Example 1; SCC, BC and mastitis effects are determined as described in Example 2. Effect on fecal consistency and effect on milk yield is determined as described in Example 3. The different lactylates are stearoyl lactylate, lauroyl lactylate, myristoyl lactylate, cetyl lactylate, palmitoyl lactylate and oleic lactylate. As control, the same diet without lactylates is supplied.

ruminants [2] = experiment: comparison of lactylates: effect on fecal consistency score
Procedure: as §1

ruminants [3] = experiment: comparison of lactylates: effect on SCC, BC and mastitis
Procedure: Two experiments were carried out to evaluate the efficacy of lactylates in stimulating udder health. The first experiment was conducted with goats and the second with dairy cows. In the first experiment, a goat farm was used. The farm had issues with udder health and had high levels of somatic cell count (SCC) and bacterial counts (BC) in milk delivered. Performance and udder health data were collected every 4 weeks from shortly before starting the experiment for a duration of 3 months. During the experiment all goats on the farm were offered a ration supplemented with lactylates (in this case applied as ALOAPUR® powder as obtained from Purac/Corbion) (added to the compound feed, 3.5 to 7 g per goat per day). During the 3-month study period, every 3 to 4 weeks, data on performance and udder health was collected. The 2nd study was conducted on 7 dairy farms. […] Lactylates were supplemented to the ration of the cows on those farms via the compound feed (25 to 40 g per cow per day). The study lasted for 3 months. Performance and udder health data were collected at the beginning and every 4 weeks of the study. […] Methane emission is determined as described in Example 1; SCC, BC and mastitis effects are determined as described in Example 2. Effect on fecal consistency and effect on milk yield is determined as described in Example 3. The different lactylates are stearoyl lactylate, lauroyl lactylate, myristoyl lactylate, cetyl lactylate, palmitoyl lactylate and oleic lactylate. As control, the same diet without lactylates is supplied.

ruminants [4] = experiment: comparison of lactylates: effect on methane emission
Procedure: The well documented in vitro gas production technique (batch culture) (Soliva et al., Letters in Applied Microbiology 2003, 37, 35-39) was used in this study. The rumen fluid used in this incubation was obtained before the morning feeding from 3 rumen fistulated dairy cows on a basal diet composed of 50% maize silage and 50% wilted grass silage (on DM basis), supplemented with some straw and soybean meal. In addition, a balanced compound feed was fed to fulfill the animals' requirements for milk production. The rumen fluid of the three animals was mixed and used to prepare the inoculum. Incubations were performed in sealed 125-mL flasks, in triplicate. The supplements comprising the lactylates (in this case applied as ALOAPUR® powder as obtained from Purac/Corbion) at the level of 1 mg per ml buffered rumen fluid (see below), as well as the simulated dairy cow ration were added to the incubation flasks. On the day of the incubation, the flasks were sealed and flushed with CO2. To each flask, 25 mL of CO2-saturated bicarbonate/phosphate buffered rumen fluid was added (buffer:rumen fluid 4:1, v:v) before the onset of the in vitro incubations at 39° C. in a shaking incubator (Edmund Bühler Gmbh, Hechingen, Germany). After 24 h incubation period, the flasks were removed from the incubator and put directly in an ice bath to stop the microbial activity. Total gas pressure was measured, and the gas phase was sampled for gas composition analysis. Afterwards, pH was measured, and samples were collected for volatile fatty acids (VFA) analysis and protozoa numbers counting. […] Methane emission is determined as described in Example 1; SCC, BC and mastitis effects are determined as described in Example 2. Effect on fecal consistency and effect on milk yield is determined as described in Example 3. The different lactylates are stearoyl lactylate, lauroyl lactylate, myristoyl lactylate, cetyl lactylate, palmitoyl lactylate and oleic lactylate. As control, the same diet without lactylates is supplied.

Row | Compound | Average milk fat yield increased relative to control (ruminants [1]) | Number of ruminants with low fecal consistency reduced relative to control (ruminants [2]) | BC in milk reduced relative to control (ruminants [3]) | SCC in milk reduced relative to control (ruminants [3]) | incidence of mastitis reduced relative to control (ruminants [3]) | Methane emission reduction relative to control (ruminants [4])
1 | CCCCCCCCCCCCCC(=O)OC(C)C(=O)O (stereo not drawn) [Myristoyl lactylate, myristoyl lactylate] | by >10% | by >50% | by >20%, | by >20%, | by >25% | by >90%
2 | cetyl lactylate | by >10% | by >50% | by >20%, | by >20%, | by >25% | by >90%
3 | CCCCCCCCCCCCCCCC(=O)OC(C)C(=O)O (stereo not drawn) [Palmitoyl lactylate, palmitoyl lactylate] | by >10% | by >50% | by >20%, | by >20%, | by >25% | by >90%
4 | CCCCCCCCCCCC(=O)OC(C)C(=O)O (stereo not drawn) [Lauroyl lactylate, lauroyl lactylate] | by >10% | by >50% | by >20%, | by >20%, | by >25% | by >90%
5 | CCCCCCCC/C=C\CCCCCCCC(=O)OC(C)C(=O)O (stereo not drawn) [Oleic lactylate, oleic lactylate] | by >10% | by >50% | by >20%, | by >20%, | by >25% | by >90%
